Source: patent US20230091047A1 (priority 2019, published 2023)
Where two headings read alike, the source gives them in different places.

How the values were obtained:
in vitro = assay type: cell-based; details: human, HepG2 or HepG2.117 cells, ATPlite, mean value
Summary of the method: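 Luminescent ATP quantitation served as the viability endpoint following a 3- or 4-day incubation with test compounds.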

[1] = system: HBV (HepG2.117 cell line, inducibly HBV producing); assay: Anti-HBV activity: intracellular HBV DNA by real-time PCR in HepG2.117 cells after 3 days of treatment; assay type: cell-based, hepatitis B virus
Summary of the method: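 HepG2.117 cells replicate HBV under Tet-off control, without doxycycline. After induction of replication, cells were treated with serially diluted compound for 3 days, and intracellular HBV DNA was then quantified by real-time PCR with an HBV-specific primer set and probe.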

[2] = 3-days incubation (unmarked values)
[3] = Hepatitis B virus, HepG2.117, 72 h, HepG2.117 cells, 3 days of treatment, intracellular HBV DNA by real-time PCR; mean value; read-out: EC50 (μM, mean value)
[4] = 3-days incubation (not marked with *)
[5] = Hepatitis B virus, HepG2.117, 72 h, HepG2.117 cells, intracellular HBV DNA by real-time PCR, 3 days of treatment, mean value; read-out: EC50 (μM, mean value)

| Compound | CC50 at 3 days (in vitro; [2]) | EC50 [1, 3] | CC50 at 3 days (in vitro; [4]) | EC50 [1, 5] |
| --- | --- | --- | --- | --- |
| CC(C)Nc1nc2c(c(=O)n1-c1ccc(-c3ncccn3)cc1)C[C@@H](C)N(C(=O)c1ccc(Cl)c(Cl)c1)C2 [Compound C237, (6R)-7-(3,4-dichlorobenzoyl)-6-methyl-2-[(propan-2-yl)amino]-3-[4-(pyrimidin-2-yl)phenyl]-5,6,7,8-tetrahydropyrido[3,4-d]pyrimidin-4(3H)-one] | > 50 µM | 0.23 µM |  |  |
| CC(C)Nc1nc2c(c(=O)n1-c1ccc(S(C)(=O)=O)cc1)CCN(C(=O)c1ccc(Cl)c(C(F)(F)F)c1)C2 [Compound C191, 7-[4-chloro-3-(trifluoromethyl)benzoyl]-3-[4-(methanesulfonyl)phenyl]-2-[(propan-2-yl)amino]-5,6,7,8-tetrahydropyrido[3,4-d]pyrimidin-4(3H)-one] | > 50 µM | 0.4 µM |  |  |
| CNC(=O)c1ccc(-n2c(NC(C)C)nc3c(c2=O)C[C@@H](C)N(C(=O)c2cc(Br)cc(C(F)(F)F)c2)C3)cc1 [Compound C602] |  |  | > 25 µM | 0.38 µM |
| COc1ccc(CNc2nc3c(c(=O)n2-c2ccccc2Cl)CCN(C(=O)c2ccc(Cl)c(Cl)c2)C3)cc1 [Compound C15, 3-(2-chlorophenyl)-7-(3,4-dichlorobenzoyl)-2-{[(4-methoxyphenyl)methyl]amino}-5,6,7,8-tetrahydropyrido[3,4-d]pyrimidin-4(3H)-one] | > 50 µM | 1.08 µM |  |  |
| CNc1noc2cc(-n3c(N[C@@H](C)c4ccc(C(F)(F)F)cc4)nc4c(c3=O)C[C@@H](C)N(C(=O)c3ccc(Cl)c(Cl)c3)C4)ccc12 [Compound C612, (R)-7-(3,4-dichlorobenzoyl)-6-methyl-3-(3-(methylamino)-benzo[d]isoxazol-6-yl)-2-(((S)-1-(4-(trifluoromethyl)phenyl)ethyl)amino)-5,6,7,8-tetrahydropyrido[3,4-d]pyrimidin-4(3H)-one] |  |  | > 50 µM | 0.14 µM |
| CNC(=O)c1ccc(-n2c(NCc3cc(C(F)F)no3)nc3c(c2=O)C[C@@H](C)N(C(=O)c2ccc(Cl)c(Cl)c2)C3)cc1 [Compound C554] |  |  | > 50 µM | 1.77 µM |
| CNC(=O)c1cnc(-n2c(N[C@@H](C)c3ccc(C(F)(F)F)cc3)nc3c(c2=O)C[C@@H](C)N(C(=O)c2ccc(Cl)c(Cl)c2)C3)cn1 [Compound C615] |  |  | > 50 µM | 0.13 µM |
| Cc1nnc(-c2ccc(-n3c(NC(C)C)nc4c(c3=O)C[C@@H](C)N(C(=O)c3ccc(Cl)c(Cl)c3)C4)cc2)o1 [Compound C242, (6R)-7-(3,4-dichlorobenzoyl)-6-methyl-3-[4-(5-methyl-1,3,4-oxadiazol-2-yl)phenyl]-2-[(propan-2-yl)amino]-5,6,7,8-tetrahydropyrido[3,4-d]pyrimidin-4(3H)-one] | > 50 µM | 0.28 µM |  |  |
| CNC(=O)c1ccc(-n2c(N3CC4(CCC4)C3)nc3c(c2=O)C[C@@H](C)N(C(=O)c2ccc(Cl)c(Cl)c2)C3)cc1 [Compound C332, 4-[(6R)-2-(2-azaspiro[3.3]heptan-2-yl)-7-(3,4-dichlorobenzoyl)-6-methyl-4-oxo-5,6,7,8-tetrahydropyrido[3,4-d]pyrimidin-3(4H)-yl]-N-methylbenzamide] | 26 µM | 1.46 µM |  |  |
| CC(C)Nc1nc2c(c(=O)n1-c1ccc(-n3cccn3)cc1)C[C@@H](C)N(C(=O)c1ccc(Cl)c(Cl)c1)C2 [Compound C166, (6R)-7-(3,4-dichlorobenzoyl)-6-methyl-2-[(propan-2-yl)amino]-3-[4-(1H-pyrazol-1-yl)phenyl]-5,6,7,8-tetrahydropyrido[3,4-d]pyrimidin-4(3H)-one] | > 50 µM | 0.11 µM |  |  |
| CNC(=O)c1cc(-n2c(N[C@@H](C)c3ccc(F)cc3)nc3c(c2=O)C[C@@H](C)N(C(=O)c2ccc(Cl)c(C(F)(F)F)c2)C3)n(C)n1 [Compound C658] |  |  | 32.2 µM | 0.07 µM |
| COc1ccc(CNc2nc3c(c(=O)n2CCNS(C)(=O)=O)CCN(C(=O)c2ccc(Cl)c(Cl)c2)C3)cc1 [Compound C111, N-{2-[7-(3,4-dichlorobenzoyl)-2-{[(4-methoxyphenyl)methyl]amino}-4-oxo-5,6,7,8-tetrahydropyrido[3,4-d]pyrimidin-3(4H)-yl]ethyl}methanesulfonamide] | > 50 µM | 7.64 µM |  |  |
| CCNc1nc2c(c(=O)n1-c1ccccc1OC)CCN(C(=O)c1ccc(Cl)c(Cl)c1)C2 [Compound C38, 7-(3,4-dichlorobenzoyl)-2-(ethylamino)-3-(2-methoxyphenyl)-5,6,7,8-tetrahydropyrido[3,4-d]pyrimidin-4(3H)-one] | > 50 µM | 6.87 µM |  |  |
| COC(=O)C12CC(n3c(NC(C)C)nc4c(c3=O)C[C@@H](C)N(C(=O)c3ccc(Cl)c(Cl)c3)C4)(C1)C2 [Compound C236] | > 50 µM | > 50 µM |  |  |
| CNC(=O)c1ccc(-n2c(N[C@H]3CCCC3(C)C)nc3c(c2=O)C[C@@H](C)N(C(=O)c2ccc(Cl)c(Cl)c2)C3)cc1 (single isomer, unassigned) [Compound C319, 4-[(6R)-7-(3,4-dichlorobenzoyl)-2-{[(1*S)-2,2-dimethylcyclopentyl]amino}-6-methyl-4-oxo-5,6,7,8-tetrahydropyrido[3,4-d]pyrimidin-3(4H)-yl]-N-methylbenzamide] | 23.5 µM | 0.21 µM |  |  |
| CC(C)Nc1nc2c(c(=O)n1-c1ccc(-c3nccn3C)cc1Cl)C[C@@H](C)N(C(=O)c1ccc(Cl)c(Cl)c1)C2 (single isomer, unassigned) [Compound C392a] |  |  | 22.7 µM | 0.16 µM |
| COc1ccc(CNc2nc3c(c(=O)n2-c2ccc4ncoc4c2)CCN(C(=O)c2ccc(Cl)c(Cl)c2)C3)cc1 [Compound C131, 3-(1,3-benzoxazol-6-yl)-7-(3,4-dichlorobenzoyl)-2-{[(4-methoxyphenyl)methyl]amino}-5,6,7,8-tetrahydropyrido[3,4-d]pyrimidin-4(3H)-one] | > 50 µM | 0.53 µM |  |  |
| CNC(=O)c1ccc(-n2c(NCc3nc(C(F)(F)F)n[nH]3)nc3c(c2=O)C[C@@H](C)N(C(=O)c2ccc(Cl)c(Cl)c2)C3)cc1 [Compound C598] |  |  | > 50 µM | > 25 µM |
| CC(C)Nc1nc2c(c(=O)n1-c1ccc(-c3ncc[nH]3)cc1)C[C@@H](C)N(C(=O)c1ccc(Cl)c(Cl)c1)C2 [Compound C196, (6R)-7-(3,4-dichlorobenzoyl)-3-[4-(1H-imidazol-2-yl)phenyl]-6-methyl-2-[(propan-2-yl)amino]-5,6,7,8-tetrahydropyrido[3,4-d]pyrimidin-4(3H)-one] | > 43 µM | 0.17 µM |  |  |
| CC(C)Nc1nc2c(c(=O)n1-c1ccc(S(C)(=O)=O)cc1)CCN(C(=O)c1cc(Cl)c(Cl)s1)C2 [Compound C181, 7-(4,5-dichlorothiophene-2-carbonyl)-3-[4-(methanesulfonyl)phenyl]-2-[(propan-2-yl)amino]-5,6,7,8-tetrahydropyrido[3,4-d]pyrimidin-4(3H)-one] | > 50 µM | 2.56 µM |  |  |
| CNC(=O)c1ccc(-n2c(NC(C)C)nc3c(c2=O)C[C@@H](C)N(C(=O)c2ccc(Br)cc2)C3)cc1 [Compound C563] |  |  | > 50 µM | 0.26 µM |
| CNC(=O)c1ccc(-n2c(N[C@H](C)C(C)(C)C)nc3c(c2=O)C[C@@H](C)N(C(=O)c2ccc(Cl)c(Cl)c2)C3)cc1 (single isomer, unassigned) [Compound C459a] |  |  | 31.9 µM | 0.44 µM |
| Cc1nc(-c2ccc(-n3c(NC(C)C)nc4c(c3=O)C[C@@H](C)N(C(=O)c3ccc(Cl)c(Cl)c3)C4)c(Cl)c2)c[nH]1 [Compound C324, (6R)-3-[2-chloro-4-(2-methyl-1H-imidazol-4-yl)phenyl]-7-(3,4-dichlorobenzoyl)-6-methyl-2-[(propan-2-yl)amino]-5,6,7,8-tetrahydropyrido[3,4-d]pyrimidin-4(3H)-one] | > 50 µM | 0.41 µM |  |  |
| CNC(=O)c1ccc(-n2c(N[C@@H](C)c3ccc(C(F)(F)F)cc3)nc3c(c2=O)C[C@@H](C)N(C(=O)c2ccc(Cl)c(C(F)F)c2)C3)cc1 [Compound C628] |  |  | 23.2 µM | 0.05 µM |
| CNC(=O)c1ccc(-n2c(N(C)Cc3cnc4ccc(Cl)cn34)nc3c(c2=O)C[C@@H](C)N(C(=O)c2ccc(Cl)c(Cl)c2)C3)cc1 [Compound C562] |  |  | 26.8 µM | 2.87 µM |
| CNC(=O)c1ccc(-n2c(N3C[C@@H](C#N)[C@H](c4ccccc4)C3)nc3c(c2=O)C[C@@H](C)N(C(=O)c2ccc(Cl)c(Cl)c2)C3)cc1 [Compound C487] |  |  | > 50 µM | 0.25 µM |
| CNC(=O)c1ccc(-n2c(NC(C)C)nc3c(c2=O)C[C@@H](C)N(C(=O)c2ccc(OC(F)F)c(Br)c2)C3)cc1 [Compound C571] |  |  | > 50 µM | 0.09 µM |
| CNC(=O)c1ccc(-n2c(NC(C)C)nc3c(c2=O)C[C@@H](C)N(C(=O)c2cc4c(OC(F)(F)F)cccc4[nH]2)C3)cc1 [Compound C587] |  |  | 9.2 µM | 0.09 µM |
| CNC(=O)c1ccc(-n2c(NC(C)Cn3cnnc3)nc3c(c2=O)C[C@@H](C)N(C(=O)c2ccc(Cl)c(Cl)c2)C3)cc1 (stereo partly drawn) [Compound C481] |  |  | > 50 µM | > 25 µM |
| CNC(=O)c1ccc(-n2c(N[C@H](C)c3ccc(OC(F)(F)F)cc3)nc3c(c2=O)C[C@@H](C)N(C(=O)c2ccc(Cl)c(Cl)c2)C3)cc1 (single isomer, unassigned) [Compound C440a] |  |  | 25 µM | 5.42 µM |
